Assay [1] has as its target T1, RON kinase (Homo sapiens, UniProt Q04912).
T1 construct: GST tagged recombinant human RON, amino acids 983-1400; GST; host or cells: insect cells
T1 sequence (Q04912 983-1400): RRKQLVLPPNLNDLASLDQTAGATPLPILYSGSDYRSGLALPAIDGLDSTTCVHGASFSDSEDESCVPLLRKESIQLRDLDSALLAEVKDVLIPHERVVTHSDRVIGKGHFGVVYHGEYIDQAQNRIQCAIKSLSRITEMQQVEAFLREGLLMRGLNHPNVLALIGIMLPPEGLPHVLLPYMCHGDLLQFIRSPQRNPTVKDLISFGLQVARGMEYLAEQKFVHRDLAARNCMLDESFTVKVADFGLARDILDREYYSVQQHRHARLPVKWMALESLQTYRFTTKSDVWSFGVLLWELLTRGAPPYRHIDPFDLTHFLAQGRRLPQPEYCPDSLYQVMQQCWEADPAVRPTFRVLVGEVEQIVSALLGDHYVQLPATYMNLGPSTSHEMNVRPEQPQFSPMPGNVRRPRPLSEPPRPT
The assay can be described thus: RON Kinase Assay. It counts as biochemical. Particulars: for IC50: methods of the Biological Data section; for Fold Selectivity RON/MET: ratio RON IC50 / MET IC50. How it is done:
Activity of RON kinase was determined by a radioactive filtration binding assay where incorporation of ^33P from ^33P-γ-ATP to the substrate was measured. In this assay, detection of ^33P was indicative of RON phosphorylation activity which was directly proportional to the amount of phosphorylated peptide substrate ([…], SEQ ID NO: 4). Initially, the reaction mixture contained: 400 nM RON, 20 mM HEPES, pH 7.5, 10 mM MgCl2, 2 mM MnCl2, 1 mM EGTA, 0.02% Brij 35, 0.02 mg/mL BSA, 0.1 mM Na3VO4, and 2 mM DTT. The reaction mixture was incubated with compound at room temperature for 30 minutes. To initiate the reaction, an equal volume of 20 μM ATP and 0.4 mg/mL peptide substrate were added and then incubated at room temperature for 2 hours. The final assay conditions were: 200 nM RON, 10 μM ATP, 0.2 mg/mL substrate 20 mM HEPES, pH 7.5, 10 mM MgCl2, 1 mM EGTA, 0.02% Brij 35, 0.02 mg/mL BSA, 0.1 mM Na3VO4, 2 mM DTT, and 1% DMSO. IC50 values were calculated from a series of % Activity values determined at a range of inhibitor concentrations using software routines as implemented in the GraphPad Prism software package.
GST tagged recombinant human RON, amino acids 983-1400. Expressed in insect cells.

Assay [2] concerns the target T2, RET kinase (Homo sapiens, UniProt P07949).
T2 construct: GST tagged recombinant human RET, amino acids 658-1114; GST; purchased Invitrogen; host or cells: insect cells
T2 sequence (P07949 658-1114): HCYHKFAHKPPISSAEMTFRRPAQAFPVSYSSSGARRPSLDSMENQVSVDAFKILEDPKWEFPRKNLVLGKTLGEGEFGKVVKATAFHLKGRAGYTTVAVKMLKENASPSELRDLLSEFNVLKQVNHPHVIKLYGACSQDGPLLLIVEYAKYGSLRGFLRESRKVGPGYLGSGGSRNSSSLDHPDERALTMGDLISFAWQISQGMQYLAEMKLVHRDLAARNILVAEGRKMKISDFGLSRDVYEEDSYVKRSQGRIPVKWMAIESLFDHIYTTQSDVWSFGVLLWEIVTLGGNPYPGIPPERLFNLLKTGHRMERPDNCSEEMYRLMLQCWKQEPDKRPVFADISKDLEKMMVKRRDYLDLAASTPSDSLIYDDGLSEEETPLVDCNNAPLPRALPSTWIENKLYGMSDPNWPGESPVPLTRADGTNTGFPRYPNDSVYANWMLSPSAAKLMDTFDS
The assay can be described thus: RET Kinase Assay. It counts as biochemical. Particulars: for IC50: methods of the Biological Data section; for Fold Selectivity RET/MET: ratio RET IC50 / MET IC50. Here is the method:
Activity of RET kinase was determined by following the production of ADP from the kinase reaction through coupling with the pyruvate kinase/lactate dehydrogenase system (see e.g., Schindler et al. Science (2000) 289: 1938-1942). In this assay, the oxidation of NADH (thus the decrease at A340 nm) was continuously monitored spectrophotometrically. The reaction mixture (100 μl) contained RET (amino acid residues 658-1114, from Invitrogen, 2 nM), polyE4Y (1.5 mg/ml), MgCl2 (18 mM), pyruvate kinase (4 units), lactate dehydrogenase (0.7 units), phosphoenol pyruvate (1 mM), and NADH (0.28 mM) in 90 mM […] buffer containing 0.2% octyl-glucoside, 1 mM DTT and 1% DMSO, pH 7.5. Test compounds were incubated with RET kinase and other reaction reagents at 22° C. for <2 min before ATP (500 μM) was added to start the reaction. The absorption at 340 nm was monitored continuously for 3 hours at 30° C. on BioTek Synergy 2 Reader. The reaction rate was calculated using the 1 to 2 h time frame. Percent inhibition was obtained by comparison of reaction rate with that of a control (i.e., with no test compound). IC50 values were calculated from a series of percent inhibition values determined at a range of inhibitor concentrations using software routines as implemented in the GraphPad Prism software package.
GST tagged recombinant human RET, amino acids 658-1114. Expressed in insect cells.

Assay [3] has as its target T3, c-MET kinase (Homo sapiens, UniProt P08581).
T3 construct: His6 with TEV-site leader (N); purchased Invitrogen PV3143
Particulars: values published in the '188 application (pp. 96-97); cited from earlier work.

Assay [4] addresses VEGFR-2 (KDR kinase) (Homo sapiens, UniProt P35968, DEL940-989/E990V). Particulars: values published in the '188/'556 applications; cited from earlier work.
Assay [5] deals with T1, RON kinase. Particulars: values published in the '188/'556 applications; cited from earlier work.

As usually defined, the IC50 is the concentration that inhibits the measured activity by half.

SMILES strings stand for the structures. Read-outs that look alike come from different tables or passages of the source.

VEGFR-2 (KDR kinase), sequence (P35968 with tags, fused parts or gaps DEL940-989/E990V): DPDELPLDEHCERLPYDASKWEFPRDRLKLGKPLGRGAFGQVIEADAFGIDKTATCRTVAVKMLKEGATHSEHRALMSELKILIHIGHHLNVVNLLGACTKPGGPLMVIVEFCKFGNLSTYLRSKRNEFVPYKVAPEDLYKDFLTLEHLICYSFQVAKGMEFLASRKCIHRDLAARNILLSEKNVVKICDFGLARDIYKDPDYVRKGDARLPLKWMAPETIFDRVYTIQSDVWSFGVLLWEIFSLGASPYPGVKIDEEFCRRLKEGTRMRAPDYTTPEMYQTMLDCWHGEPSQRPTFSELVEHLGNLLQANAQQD
T3 sequence (P08581 with tags, fused parts or gaps): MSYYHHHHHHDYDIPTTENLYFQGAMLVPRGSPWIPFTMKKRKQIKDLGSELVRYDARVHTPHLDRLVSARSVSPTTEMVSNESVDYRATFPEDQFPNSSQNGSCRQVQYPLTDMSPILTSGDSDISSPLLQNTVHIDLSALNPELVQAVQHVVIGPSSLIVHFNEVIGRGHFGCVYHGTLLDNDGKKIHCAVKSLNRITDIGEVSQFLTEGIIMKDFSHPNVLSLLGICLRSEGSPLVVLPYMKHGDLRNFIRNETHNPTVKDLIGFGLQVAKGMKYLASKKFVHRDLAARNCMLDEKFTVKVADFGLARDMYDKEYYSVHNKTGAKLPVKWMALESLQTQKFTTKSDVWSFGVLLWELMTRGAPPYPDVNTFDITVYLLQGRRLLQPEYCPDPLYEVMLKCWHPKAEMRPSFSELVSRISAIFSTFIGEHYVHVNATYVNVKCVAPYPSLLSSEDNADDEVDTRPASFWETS

Regarding `CC(=O)Nc1cc(Oc2cc(F)c(NC(=O)C3(C(=O)Nc4ccc(F)cc4)CC3)cc2F)ccn1` [Compound D, N-(4-(2-acetamidopyridin-4-yloxy)-2,5-difluorophenyl)-N′-(4-fluorophenyl)cyclopropane-1,1-dicarboxamide], in assay [1], the IC50 is not below 5 µM and the “Fold Selectivity RON/MET” value is given as >1,250. Besides, in assay [2], the IC50 is more than 3.3 µM and the “Fold Selectivity RET/MET” value is listed as more than 825.

As for `O=C(Nc1cc(Oc2cc(F)c(NC(=O)C3(C(=O)Nc4ccc(F)cc4)CC3)cc2F)ccn1)N1CC(CO)C1` [Compound H], in assay [1], the “Fold Selectivity RON/MET” value was determined as 0.75. In addition, the IC50 in assay [3] is 0.004 µM; in assay [4] it was 0.01 µM; in assay [5] it was 0.003 µM. For the same molecule, the “Fold Selectivity RET/MET” value in assay [2] was 7.

`CC(=O)Nc1cc(Oc2ccc(NC(=O)C3(C(=O)Nc4ccc(F)cc4)CC3)c(F)c2)ccn1` [Compound E, N-(4-(2-acetamidopyridin-4-yloxy)-2-fluorophenyl)-N′-(4-fluorophenyl)cyclopropane-1,1-dicarboxamide]: in assay [1], the IC50 amounted to 0.1 µM and the “Fold Selectivity RON/MET” value was determined as 3.85. Besides, in assay [2], the IC50 is 0.043 µM and the “Fold Selectivity RET/MET” value stood at 1.65.

In the case of `CN1CCN(C2CCN(C(=O)Nc3cc(Oc4cc(F)c(NC(=O)C5(C(=O)Nc6ccc(F)cc6)CC5)cc4F)ccn3)CC2)CC1` [Compound G], the “Fold Selectivity RON/MET” value in assay [1] stood at 0.04. For the same molecule, the IC50 in assay [3] was 0.053 µM; in assay [4], 0.1 µM; in assay [5] it was 0.002 µM. For the same molecule, the “Fold Selectivity RET/MET” value in assay [2] is reported as 0.81.

The values above are taken from patent publication US8637672B2 (Deciphera Pharmaceuticals, LLC, priority 2010, dated 2014).
